How the values were obtained:
DNA-PKcs = target: T1, DNA-PKcs (Mus musculus, UniProt P97313); experiment: p38 MAPK activation in pre-activated WT and B7-H1 KO T cells cultured with DNA-PKcs inhibitor; type: cell-based
T1 construct: endogenous in cells
Protocol: NU7026 (2-(morpholin-4-yl)-benzo[h]chomen-4-one) is a DNA-PKcs inhibitor. […] NU7026 is added into cultures with pre-activated WT and B7-H1 KO T cells and after 24-72 hours of incubation, the activation of p38 is measured in the cells. As a consequence of p38 MAPK activation regulated by NU7026, the level of Bcl-xL also is measured in the T cells after treatment with NU7026. If p38 activation is regulated by DNA-PKcs, changes in p38 activation in the presence of NU7026 would be observed in WT T cells. If B7-H1 requires DNA-PKcs to regulate activation of p38 MAPK, NU7026 would induce significant changes in p38 MAPK activation in WT T cells, but not in B7-H1 KO T cells. […] Bcl-xL levels would change accordingly with the changes in p38 MAPK activation. In addition to inhibition of DNA-PKcs activity by NU7026, the impact of total DNA-PKcs protein levels on p38 MAPK activation is evaluated. siRNA-mediated knockdown of DNA-PKcs is known to result in reduced ERK activation in mouse macrophages (Yotsumoto et al., supra). Using a similar approach, experiments are conducted to test whether down-regulation of DNA-PKcs in T cells affects p38 MAPK activation in WT and B7-H1 KO T cells. Preliminary data predicts a potential link between DNA-PK and activation of p38 MAPK. […]

DNA-PK = DNA-PK (Homo sapiens, UniProt P78527); settings: 10 μM; cited from earlier work

T1 sequence (P97313 whole entry): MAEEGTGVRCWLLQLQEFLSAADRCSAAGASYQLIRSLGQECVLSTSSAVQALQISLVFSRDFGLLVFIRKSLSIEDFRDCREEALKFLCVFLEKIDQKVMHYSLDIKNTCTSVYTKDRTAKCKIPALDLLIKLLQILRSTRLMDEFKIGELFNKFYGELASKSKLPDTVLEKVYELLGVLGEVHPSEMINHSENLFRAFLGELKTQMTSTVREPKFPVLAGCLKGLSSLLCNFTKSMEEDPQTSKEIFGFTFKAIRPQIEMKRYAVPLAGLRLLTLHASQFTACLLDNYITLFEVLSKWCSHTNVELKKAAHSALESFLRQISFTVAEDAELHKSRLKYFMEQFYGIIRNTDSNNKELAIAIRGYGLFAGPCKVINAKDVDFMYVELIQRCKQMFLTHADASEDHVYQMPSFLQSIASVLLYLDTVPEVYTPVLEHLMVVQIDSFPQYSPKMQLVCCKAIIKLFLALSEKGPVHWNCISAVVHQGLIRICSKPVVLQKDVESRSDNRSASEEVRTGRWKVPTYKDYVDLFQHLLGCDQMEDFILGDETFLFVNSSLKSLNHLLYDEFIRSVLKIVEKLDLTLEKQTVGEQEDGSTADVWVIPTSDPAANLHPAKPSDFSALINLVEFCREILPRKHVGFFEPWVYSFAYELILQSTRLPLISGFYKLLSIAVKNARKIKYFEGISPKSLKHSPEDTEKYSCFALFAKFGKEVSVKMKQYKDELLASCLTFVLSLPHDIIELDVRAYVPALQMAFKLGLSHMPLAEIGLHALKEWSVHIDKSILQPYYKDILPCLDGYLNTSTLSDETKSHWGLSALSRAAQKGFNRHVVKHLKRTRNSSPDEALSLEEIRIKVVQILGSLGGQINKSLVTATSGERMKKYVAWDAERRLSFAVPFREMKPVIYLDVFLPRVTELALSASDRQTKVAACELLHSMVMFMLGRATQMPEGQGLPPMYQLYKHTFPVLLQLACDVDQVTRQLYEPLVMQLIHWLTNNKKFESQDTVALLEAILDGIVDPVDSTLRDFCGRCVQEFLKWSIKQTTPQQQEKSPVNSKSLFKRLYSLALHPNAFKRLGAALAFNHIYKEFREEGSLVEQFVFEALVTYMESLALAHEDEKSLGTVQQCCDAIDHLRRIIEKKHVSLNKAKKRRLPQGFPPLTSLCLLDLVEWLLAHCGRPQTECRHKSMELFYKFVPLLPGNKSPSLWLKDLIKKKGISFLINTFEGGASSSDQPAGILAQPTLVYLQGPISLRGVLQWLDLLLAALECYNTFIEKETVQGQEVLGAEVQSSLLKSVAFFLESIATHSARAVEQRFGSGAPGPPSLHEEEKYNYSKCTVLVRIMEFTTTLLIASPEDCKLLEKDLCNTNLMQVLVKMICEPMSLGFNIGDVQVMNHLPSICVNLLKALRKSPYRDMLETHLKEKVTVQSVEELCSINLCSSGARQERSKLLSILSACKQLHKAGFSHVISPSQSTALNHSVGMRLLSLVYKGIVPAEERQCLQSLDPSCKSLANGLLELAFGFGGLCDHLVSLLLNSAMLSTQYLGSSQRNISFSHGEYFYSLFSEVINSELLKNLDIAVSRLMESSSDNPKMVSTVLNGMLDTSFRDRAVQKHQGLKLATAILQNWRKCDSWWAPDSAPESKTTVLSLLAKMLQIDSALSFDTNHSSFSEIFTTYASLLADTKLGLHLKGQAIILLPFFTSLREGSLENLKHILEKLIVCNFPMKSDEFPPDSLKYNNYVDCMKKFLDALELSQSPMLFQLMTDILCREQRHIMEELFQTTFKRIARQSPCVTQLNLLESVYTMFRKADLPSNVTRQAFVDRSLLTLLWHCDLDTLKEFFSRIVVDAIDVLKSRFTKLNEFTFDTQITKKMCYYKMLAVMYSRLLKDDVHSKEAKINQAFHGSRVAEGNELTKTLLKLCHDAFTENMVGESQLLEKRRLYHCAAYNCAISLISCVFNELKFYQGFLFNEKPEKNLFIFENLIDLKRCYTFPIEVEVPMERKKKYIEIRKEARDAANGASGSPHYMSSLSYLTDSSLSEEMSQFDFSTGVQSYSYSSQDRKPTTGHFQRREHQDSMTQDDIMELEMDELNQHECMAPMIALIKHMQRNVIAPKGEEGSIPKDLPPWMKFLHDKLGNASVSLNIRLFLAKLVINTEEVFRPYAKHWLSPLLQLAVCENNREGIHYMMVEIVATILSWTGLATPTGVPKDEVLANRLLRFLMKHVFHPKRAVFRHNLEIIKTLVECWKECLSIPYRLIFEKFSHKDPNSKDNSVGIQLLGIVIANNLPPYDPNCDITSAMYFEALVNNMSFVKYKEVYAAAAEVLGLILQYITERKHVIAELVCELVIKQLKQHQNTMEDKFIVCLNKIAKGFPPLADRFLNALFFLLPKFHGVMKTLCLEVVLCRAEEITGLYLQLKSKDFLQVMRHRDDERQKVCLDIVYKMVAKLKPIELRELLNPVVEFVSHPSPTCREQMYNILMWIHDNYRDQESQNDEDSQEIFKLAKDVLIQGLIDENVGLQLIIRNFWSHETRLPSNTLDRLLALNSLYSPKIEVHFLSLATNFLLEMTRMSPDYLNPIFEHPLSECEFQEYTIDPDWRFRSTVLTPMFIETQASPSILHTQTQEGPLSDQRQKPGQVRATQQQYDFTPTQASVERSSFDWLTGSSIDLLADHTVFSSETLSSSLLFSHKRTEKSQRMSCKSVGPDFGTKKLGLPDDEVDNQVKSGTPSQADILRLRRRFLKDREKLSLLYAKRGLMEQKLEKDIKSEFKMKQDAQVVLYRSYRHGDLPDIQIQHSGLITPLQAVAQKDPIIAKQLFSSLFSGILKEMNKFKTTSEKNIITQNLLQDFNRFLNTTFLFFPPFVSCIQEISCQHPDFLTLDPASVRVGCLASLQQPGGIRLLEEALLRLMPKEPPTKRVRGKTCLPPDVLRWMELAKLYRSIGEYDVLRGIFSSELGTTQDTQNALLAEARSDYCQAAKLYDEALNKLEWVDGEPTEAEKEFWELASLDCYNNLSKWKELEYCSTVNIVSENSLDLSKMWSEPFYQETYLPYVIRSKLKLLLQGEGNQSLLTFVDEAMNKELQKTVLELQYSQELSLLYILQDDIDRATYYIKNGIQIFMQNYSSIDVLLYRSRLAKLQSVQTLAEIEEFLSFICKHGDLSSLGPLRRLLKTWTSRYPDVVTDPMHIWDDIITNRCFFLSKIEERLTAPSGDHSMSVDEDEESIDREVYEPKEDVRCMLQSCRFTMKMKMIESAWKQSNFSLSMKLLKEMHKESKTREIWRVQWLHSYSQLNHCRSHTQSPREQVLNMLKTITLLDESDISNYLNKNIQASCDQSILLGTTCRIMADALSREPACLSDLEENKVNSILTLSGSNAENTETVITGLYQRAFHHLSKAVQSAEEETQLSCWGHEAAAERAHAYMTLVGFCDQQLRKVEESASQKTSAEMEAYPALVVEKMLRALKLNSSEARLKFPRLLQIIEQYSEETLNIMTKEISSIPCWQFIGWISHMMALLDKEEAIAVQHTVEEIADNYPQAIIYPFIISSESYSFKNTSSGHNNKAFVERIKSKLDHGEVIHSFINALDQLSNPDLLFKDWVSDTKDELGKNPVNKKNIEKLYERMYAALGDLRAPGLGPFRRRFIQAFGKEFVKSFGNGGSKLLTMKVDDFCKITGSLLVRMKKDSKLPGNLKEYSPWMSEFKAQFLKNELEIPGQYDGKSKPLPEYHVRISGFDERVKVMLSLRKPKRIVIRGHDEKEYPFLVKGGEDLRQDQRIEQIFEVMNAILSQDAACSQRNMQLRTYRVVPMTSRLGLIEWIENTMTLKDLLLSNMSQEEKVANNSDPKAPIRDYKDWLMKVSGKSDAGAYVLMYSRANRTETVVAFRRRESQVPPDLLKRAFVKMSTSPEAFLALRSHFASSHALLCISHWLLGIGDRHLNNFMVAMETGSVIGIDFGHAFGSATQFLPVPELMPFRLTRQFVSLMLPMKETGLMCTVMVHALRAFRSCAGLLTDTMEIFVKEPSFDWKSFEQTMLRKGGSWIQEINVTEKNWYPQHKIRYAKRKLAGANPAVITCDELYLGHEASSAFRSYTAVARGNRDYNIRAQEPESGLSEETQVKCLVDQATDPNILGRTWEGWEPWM

O=c1cc(N2CCOCC2)oc2c1ccc1ccccc12 [NU7026, 2-(morpholin-4-yl)-benzo[h]chomen-4-one]
p38 MAPK activation in WT T cells (DNA-PKcs): increased | inhibition of activity of purified DNA-PK (DNA-PK): completely inhibit

Reference: patent US10302653B2, “Distinguishing antagonistic and agonistic anti B7-H1 antibodies” (Mayo Foundation for Medical Education and Research, priority 2014, dated 2019)
